In US12043644B2, “Benzimidazole derivatives, preparation method thereof and use thereof as anti-cancer agent or anti-virus agent comprising the same” (BIOMETRIX TECHNOLOGY INC, priority 2020, dated 2024):

How the values were obtained:
[1] = system: normal lung cell line MRC-5 and the normal colon CCD-18Co cell line; experiment: Toxicity test in normal cell line (WST-8 cell viability); format: cell-based; conditions: grade evaluated in comparison with doxorubicin, MRC-5 and CCD-18Co, 0-100 μm, 7 concentrations, 72 hours
Protocol: The normal lung cell line MRC-5 and the normal colon CCD-18Co cell line were furnished from Korea Cell Line Bank (KCLB, Seoul, Korea) and cultured in culture medium. In a humidified cell culture incubator containing 5% CO2 at 37° C. using DMEM, 10% culture flask, fetal bovine serum (FBS), 0.1 mM MEM non-essential amino acids (NEAA), 2 mM L-glutamine, and 1% penicillin-streptomycin were treated with trypsin every 2-3 days according to the guidelines provided by KCLB, and the cells were sub-cultured. The culture was cultured until it reached 80-90% confluence, and the cells were continuously transferred to a culture flask for a cancer cell line growth inhibition experiment. Normal cell lines (MRC-5 and CCD-18Co) were seeded in about 10000 cells per well in a 96-well plate. After 24 hours, the three compounds shown in Table 1 below were added to each well at 7 concentrations, and incubated for 72 hours. The cell viability and analysis in the normal cell line were performed in the same manner as in Test Example 1, and the results of the toxicity test (72 hours) in the normal cell line are shown in FIG. 4.

[2] = system: human lung cancer cell line A549, cervical cancer cell line Hela, and colorectal cancer cell line HT-29; experiment: Cancer cell line growth inhibition test (WST-8 cell viability); format: cell-based; conditions: grade evaluated in comparison with doxorubicin, 0-100 μm, 7 concentrations, incubated for 72 hours
Protocol: Human lung cancer cell line A549, cervical cancer cell line Hela, and colorectal cancer cell line HT-29 were furnished from Korea Cell Line Bank (KCLB, Seoul, Korea) and cultured in culture medium. In a humidified cell culture incubator containing 5% CO2 at 37° C. using DMEM, 10% culture flask, fetal bovine serum (FBS), 0.1 mM MEM non-essential amino acids (NEAA), 2 mM L-glutamine, and 1% penicillin-streptomycin were treated with trypsin every 2-3 days according to the guidelines provided by KCLB, and the cells were sub-cultured. The culture was cultured until it reached 80-90% confluence, and the cells were continuously transferred to a culture flask for a cancer cell line growth inhibition experiment. Cancer cell lines to be tested (human lung cancer cell line A549, cervical cancer cell line Hela, and colorectal cancer cell line HT-29) were seeded in about 10000 cells per well in a 96-well plate. […] After incubation, the medium was discarded and the cell viability was measured in each well using a WST-8 cell viability assay kit (Quanti-Max™, BIOMAX) according to the procedure instructed by the manufacturer. The analysis utilized the principle that the dehydrogenase in living cells decomposes tetrazolium salts to produce formazan, through which living cells were quantitatively evaluated. […]

Structure (SMILES)	Normal cell line growth inhibition test [1]	Normal cell line growth inhibition test ([1]; listed as aminophenbendazole)	Cancer cell line growth inhibition test [2]	Cancer cell line growth inhibition test ([2]; listed as phenbendazole-glucose conjugate)
Cl.Nc1nc2ccc(Sc3ccccc3)cc2[nH]1 [Aminophenbendazole, reference compound]	A A A	AAA	–	–
OC[C@H]1OC(Nc2nc3ccc(Sc4ccccc4)cc3[nH]2)[C@H](O)[C@@H](O)[C@@H]1O (stereo partly shown) [Phenhendazole-glucose conjugate, 6-(phenylthio)-1H-benzoimidazol-2-aminoglucose]	–	–	A A A	AAA
